Measurements: a melting point compilation (Tetko et al.; mined from patent text by program, amines drawn as free bases though some values may be those of a salt)
Residues, ends and D or L forms follow the SMILES beside them. *: point of attachment. Tos = Cc1ccc(S(=O)(=O)*)cc1; OtBu = CC(C)(C)O*

melting point	SMILES
202 to 207 °C	S=c1[nH]c2ccc(Cl)cc2c2nc(-c3ccco3)nn12
43 to 46 °C	CCC(O)=C1C(=O)OC(C)(C)OC1=O
160 to 161 °C	Cc1oc(-c2cccc(C(F)(F)F)c2)nc1COc1cccc(CN(O)C(N)=O)c1
84 to 87 °C	CCOC(=O)C(NC(=O)Nc1ccccc1Cl)(c1nc(OC)cc(OC)n1)C(C)C (stereo unspecified)
205 °C	CC1Cn2c(=O)[nH]c3cccc(c32)CN1Cc1ccccc1 (stereo unspecified)
130 °C	Cc1ccc(S(=O)(=O)N2CCC(CC(C#N)(c3ccccc3)c3ccccc3)CC2)cc1
91 to 92 °C	Cn1nnc2c(N3CCN(Cc4ccccc4)CC3)ncnc21
142 to 143 °C	CC(C)(C)COc1cccc(C[C@@H](NC(=O)c2cccc3c(Cl)cccc23)[C@@H](O)c2cccc(Cl)c2)c1 (racemic)
126 to 129 °C	CC(=O)Oc1cc(C(C)C)c(NC(=O)CN2CCN(CCSc3nc4ccccc4o3)CC2)c(C(C)C)c1
291 °C	CC(=O)Nc1cccc2c1C(=O)c1c-2n[nH]c1-c1ccc(N2CCCCC2)cc1
129 °C	Cn1cc([N+](=O)[O-])nc1C=O
> 300 °C	CC(C)Cn1c(=O)c2nc(-c3ccc(/C=C/C(=O)O)cc3)[nH]c2n(CC(C)C)c1=O
135 to 137 °C	CCCCCCCCCCCCCCOc1cn(Cc2ccccc2)c(CBr)cc1=O
73 to 74 °C	Cc1cc(CC(=O)c2ccccc2)on1
> 300 °C	Cc1nc(-n2ccc(N3CCNC3=O)cc2=O)sc1C(=O)NCc1ccccc1
72 to 73 °C	CCOC(=O)[C@@H](CNC(=O)c1ccccc1)[C@H](C)O
264 to 265 °C	COc1cc(OC)c2c(=O)[nH]c(-c3ccc4[nH]c(CO)cc4c3)nc2c1
153 to 155 °C	Cc1ccc(S(=O)(=O)N2CCC[C@H]2C(=O)N[C@@H](CC(=O)OC(C)(C)C)C(=O)O)cc1 (Tos-Pro-Asp(OtBu)-OH)
138 to 139 °C	CC(C)c1cc(-c2ccc(F)cc2)nc(N(C)S(C)(=O)=O)n1
207 to 208 °C	COc1ccc(-c2cnc3[nH]cc(C(=O)C(C)(C)C)c3n2)cc1
121 to 124 °C	O=C(Nc1ccc(C(F)(F)F)cc1)NC1CCN(C(=O)Cc2c[nH]cn2)CC1
91 to 93 °C	CCOC(=O)c1cnc(SC)nc1NC
70 to 71 °C	CCCCCCC(Oc1ccc(C2=CCCCC2)cc1)C(=O)O (stereo unspecified)

melting point	SMILES
237 to 238 °C	O=c1ccn(-c2ccc(C(F)(F)F)cc2)nc1-c1ccnn1-c1ccccc1
99.5 to 101 °C	COC(=O)CCn1c(=O)n(CCCCCN2CCN(c3cccc(C(F)(F)F)c3)CC2)c(=O)c2cscc21
110 to 114 °C	CN1C(=O)CC[C@]2(C)c3ccc(Sc4ccc5nc6ccccc6c(=O)n5n4)cc3CC[C@@H]12
171 to 174 °C	Clc1ccc(-c2cc(C3CCN(Cc4ccc(Cl)c(Cl)c4)CC3)n[nH]2)cc1
78 to 79 °C	O=C(CCc1ccccc1)c1ccc(Cl)cc1
121 to 125 °C	O=C1N(c2ccc(Cl)cc2Cl)Cc2cnc(Nc3ccccc3)nc2N1c1ccc(CO)cc1
135 to 137 °C	O=C(CCCN1CCC(Cc2ccccc2)CC1)c1ccc2c(c1)Cc1cc(C(=O)CCCN3CCC(Cc4ccccc4)CC3)ccc1-2
212 to 214 °C	COc1ccc(NC(=O)c2ccc(F)c(F)c2)cc1NS(=O)(=O)c1cccc(C#N)c1
164 to 165 °C	Cc1oc(-c2ccccc2)nc1COc1ccc(CON=C(CC(N)=O)c2ccccc2)cc1
62 to 63 °C	C=C(C)COc1cc(C(=O)OC)ccc1OC
126 to 127 °C	CC(=O)C1CCC2C3CCC4CC(OC(=O)C(Cl)(Cl)Cl)CCC4(C)C3C(=O)CC12C (stereo unspecified)
169 to 170 °C	COC(=O)c1cc(-c2ccccc2)c(=O)n2ccc3ccc(Cl)cc3c12
258 to 260 °C	O=S1(=O)NC(C2CCCC2)Nc2ccc(S(=O)(=O)N3CCCCC3)cc21 (stereo unspecified)
87 to 92 °C	Cn1c(C(F)(F)F)cc(=O)n(-c2ccc(Cl)c(C3OCCCO3)c2)c1=O
160 to 162 °C	CC(C)(C)OC(=O)N1C=CN(CC#N)C(=O)[C@@H]1Cc1ccccc1
71 to 72 °C	CCCCCCCCCCc1nc(N(C)C)nc(C)c1O
129 to 131 °C	Cc1nc2cccc3nc(SCCCCNS(=O)(=O)C(F)(F)F)c1n23
229 °C	CCOC(=O)Cn1c2c([nH]c(=O)c1=O)CCC1=C2C=C(n2ccc(N3CCN(c4ccc([N+](=O)[O-])cc4)CC3)c2)CC1
200 to 201 °C	O=C1N(Cc2ncccc2C(F)(F)F)c2ccccc2C12COc1cc3c(cc12)OC(F)(F)O3 (stereo unspecified)
73 to 79 °C	O=C(CCCCl)c1ccc2ccccc2c1O
62 to 64 °C	COc1cccc2c1C(C)(C)c1ccccc1C2
229 to 230 °C	COc1ccc(Oc2c([N+](=O)[O-])cc(C(=O)O)cc2S(N)(=O)=O)cc1
99 °C	CN(C)c1ccc(C2CCCN2S(=O)(=O)c2ccc(Cl)cc2)cc1F (racemic)

melting point	SMILES
66 to 69 °C	COc1ccc(-c2ccccc2C)cc1C=O
204 to 206 °C	CCOC(=O)c1cn(CC(F)(F)F)c2cc3c(cc2c1=O)OCO3
74 to 75 °C	CCOC(=O)NC(Cc1ccccc1)c1ccccc1 (stereo unspecified)
153 to 162 °C	CC(=O)c1cnn(C)c1S(N)(=O)=O
> 235 °C	CC(=O)c1ccc(NCc2ccc3ccc4nc(C)[nH]c(=O)c4c3c2)cc1
147 to 148 °C	CC(=NOCc1ccc(OCc2nc(-c3ccccc3)oc2C)cc1)C(=O)O
159 to 160 °C	CCC(Oc1ccc(C)cc1C)C(=O)OC1CC(O)C=C2C=CC(C)C(CCC3CC(O)CC(=O)O3)C21 (mixture of isomers)
118 to 120 °C	CCOC(=O)NNC(=O)NCCCl
164 to 165 °C	COCc1cc(O)c2nc(C)c(C)n2c1
110 to 112 °C	Nc1ccc(CCCc2ccc(Nc3ccccc3C(=O)O)cc2)cc1
167 to 168 °C	Cc1cc(-c2cc(F)c(F)cc2-c2ccc(S(C)(=O)=O)cc2)ccc1F
173 to 175 °C	O=C1c2ccccc2C(=O)N1Cc1cc(Cl)ccc1OCc1cccnc1
81 to 83 °C	CC(NC(=O)C(NC(=O)OCc1ccccc1)C(C)C)C(=O)NC(CC(=O)OC(C)(C)C)C(O)c1nc2ccccc2o1 (mixture of isomers)
75.5 to 76.5 °C	CCOC(=O)C(S)CC(=O)c1ccc(Oc2ccc(Cl)cc2)cc1 (stereo unspecified)
162 to 163 °C	O=c1ccnc(NCCCN(Cc2ccccc2)c2ccccn2)[nH]1
162 to 164 °C	COc1cc(CC(=O)O)ccc1OCc1nc(-c2ccco2)oc1C
209 to 210 °C	CNC(=O)c1cccc(NC(=O)Nc2ccccc2)c1
270 °C	C[C@H](N)c1nc2c(C(F)(F)F)cccc2c(O)c1C(=O)Nc1nccs1
206 to 208 °C	CC(C)(C)OC(=O)NCCNc1n[nH]c2ncnc(Nc3cccc(Cl)c3)c12
223 to 225 °C	Cc1ccc(N(C)S(=O)(=O)c2cccs2)c2[nH]c(C(=O)O)cc12
262 to 263 °C	Cn1ncc(/C=C/C(=O)Nc2ccc(Cc3n[nH]c(=O)o3)cc2)c1-c1ccc(F)cc1
53 °C	CCCCCCCCSc1ccc(C=Cc2ccc([N+](=O)[O-])cc2)cc1
97 to 101 °C	O=[N+]([O-])c1ccc(-c2cccs2)c(-c2cccs2)c1

melting point	SMILES
183 °C	Nc1ccc(C=CC(=O)N2CCc3c([nH]c4ccccc34)C2c2ccc3c(c2)CCO3)cc1 (stereo unspecified)
66 °C	S=C=NCc1cc(-c2ccccc2)no1
205 to 206 °C	O=C(COc1cccc(CCNS(=O)(=O)c2ccc(Br)cc2)c1)Nc1nnn[nH]1
133 to 136 °C	Nc1c(F)c(F)cc(C(=O)O)c1F
114 to 115 °C	COC(=O)N[C@H](C(=O)N[C@@H](Cc1ccccc1)[C@@H](O)CN(Cc1ccc(-c2cncs2)cc1)NC(=O)[C@@H](NC(=O)OC)C(C)(C)C)C(C)C
83 to 84 °C	Cc1nn(C)c(NCC(C)(C)C)c1N=O
165 to 167 °C	CC(C)c1ccc(C(=O)C23CC4CC(CC(C4)C2)C3)c(C(C)C)c1OS(N)(=O)=O
164 °C	CCC(CC)(CC(=O)Nc1cccc(OCc2ccc3ccc(C(C)=O)cc3n2)c1)C(=O)O
87 to 90 °C	COc1ccc(COc2ccccc2Br)cc1
71 to 74 °C	CC(C)(C#N)c1cc(Cn2cncn2)cc(-c2ccc(OS(N)(=O)=O)c(Cl)c2)c1
72 to 74 °C	CCCC(=NOCC)C1=C(O)CC(c2ccc(S(C)=O)cc2)CC1=O (stereo unspecified)
103 to 104 °C	COCOc1cccc(-c2ccc(-c3ccccc3)cc2-c2ccc3c(c2)C(C)(C)CCC3(C)C)c1C(=O)O
159 to 165 °C	CCOC(=O)c1cc(=O)c2c(OCC(O)COc3cccc(O)c3C(=O)C=CN(C)C)cccc2o1 (stereo unspecified)
58 °C	CCCCCCCCCCCCCCNCc1ccc(OCc2cccc(F)c2)cc1
90 to 92 °C	O=C1C2CCCCC2C(=O)N1c1ccc(Br)cc1F (stereo unspecified)
260 to 261 °C	O=C(NC(Cc1ccc(OCc2ccccc2)cc1)C(=O)O)c1nc2ccc(-c3ccc(Cl)cc3)cc2[nH]1 (stereo unspecified)
152 °C	CCSc1ccc(NC(=S)NC(=O)OC)c([N+](=O)[O-])c1
98.1 °C	Cc1nc2c(n1C)CCCC2=O
87 to 92 °C	COCC(=O)[C@H](Cc1ccccc1)NC(=O)[C@H](CC(C)C)NC(=O)OCc1ccccc1
130 to 134 °C	COc1ccc(NS(=O)(=O)c2cc(C)cc(C(C)(C)C)c2O)cc1
171 °C	Oc1ccc(CSSCc2ccc(O)cc2)cc1

SMILES	melting point
CCCN(CCC)C1CCc2cc(NC(=O)C=NO)ccc2C1 (stereo unspecified)	110 to 112 °C
COC(=O)C=C1CN=C(c2ccccc2)c2cc(Cl)ccc2N1	167 to 170 °C
CC(C)(C)OCC1C(=O)C(C)(C)C(=O)N1c1ccc(C#N)c(Cl)c1 (stereo unspecified)	124 to 125 °C
Clc1ccc(N2CCN3CCC2CC3)nn1	127 to 128 °C
O=[N+]([O-])c1ccc2c(C3=CCN(C[C@H](O)COc4cccc5[nH]ccc45)CC3)c[nH]c2c1	225 to 230 °C
CCOc1ccccc1C(=O)NC(=O)NC1CN2CCC1CC2 (stereo unspecified)	198 to 199 °C
